Patent US10590129B2 (Incozen Therapeutics Pvt. Ltd., priority 2010, dated 2020)
Counter-ions that a name gives are not always drawn.

Tested on: MKN-45 cells
Test: Inhibition of MKN-45 proliferation (MTT)
Assay type: cell-based, human
Conditions: for inhibition at 0.1 µM / Inhibition (% Inhibition of MKN-45 proliferation): 0.1 μM
Procedure: Inhibition of MKN-45 Proliferation:
Cell proliferation assays were carried out using the high Met expressing human gastric adenocarcinoma cell line, MKN-45, according to the following schedule:
Day 1: Cells were plated in 96-well plates in complete growth medium.
Day 2: Compounds at desired concentrations were added.
Day 5: Cell viability was determined using the 3-[4,5-dimethylthiazol-2-yl]-2,5-diphenyltetrazolium bromide (MTT) dye reduction test.

[1] = Homo sapiens, MKN-45, MKN-45 proliferation
[2] = Homo sapiens, MKN-45, MKN-45 proliferation, 1 μM

GI50 [1]	SMILES	inhibition at 0.1 µM [1]	also measured
–	CC(C)(c1ccc2ncccc2c1)n1nnc2ccc(-c3cn[nH]c3)nc21 [Ex 192, 6-(2-(5-(1H-Pyrazol-4-yl)-3H-[1,2,3]triazolo[4,5-b]pyridin-3-yl)propan-2-yl)quinoline]	< 25%	inhibition at 1 µM [2]: < 25%
–	CN1CCN(c2ccc3nnn(Cc4ccc5ncccc5c4)c3n2)CC1 [Ex 219, 6-((5-(4-Methylpiperazin-1-yl)-3H-[1,2,3]triazolo[4,5-b]pyridin-3-yl)methyl)quinoline]	< 25%	–
–	NC(=O)c1cccc(-c2ccc3nnn(Cc4ccc5ncccc5c4)c3n2)c1 [Ex 138, 3-(3-(Quinolin-6-ylmethyl)-3H-[1,2,3]triazolo[4,5-b]pyridin-5-yl)benzamide]	25 to 50%	inhibition at 1 µM [2]: 75 to 100%
≤ 50 nM	NC(=O)c1ccc(-c2ccc3nnn(Cc4c(F)cc5ncccc5c4F)c3n2)cc1Cl [Ex 207, 2-Chloro-4-(3-((5,7-difluoroquinolin-6-yl)methyl)-3H-[1,2,3]triazolo[4,5-b]pyridin-5-yl)benzamide]	75 to 100%	–
150 to 500 nM	CC(C)(O)c1ccc(-c2ccc3nnn(Cc4ccc5ncccc5c4)c3n2)cc1F [Ex 211, 2-(2-Fluoro-4-(3-(quinolin-6-ylmethyl)-3H-[1,2,3]triazolo[4,5-b]pyridin-5-yl)phenyl)propan-2-ol]	–	–
–	O=C(Cn1cc(-c2ccc3nnn(Cc4ccc5ncccc5c4)c3n2)cn1)N1CCCC1 [Ex 200, 1-(Pyrrolidin-1-yl)-2-(4-(3-(quinolin-6-ylmethyl)-3H-[1,2,3]triazolo[4,5-b]pyridin-5-yl)-1H-pyrazol-1-yl)ethanone]	< 25%	–
–	c1ccc(Oc2ccc3nnn(Cc4ccc5ncccc5c4)c3n2)cc1 [Ex 203, 6-((5-Phenoxy-3H-[1,2,3]triazolo[4,5-b]pyridin-3-yl)methyl)quinoline]	< 25%	–
50 to 150 nM	O=C(NCCN1CCCCC1)c1ccc(-c2ccc3nnn(Cc4ccc5ncccc5c4)c3n2)cc1 [Ex 35, N-(2-(piperidin-1-yl)ethyl)-4-(3-(quinolin-6-ylmethyl)-3H-[1,2,3]triazolo[4,5-b]pyridin-5-yl)benzamide]	–	–
150 to 500 nM	c1cnc2ccc(Cn3nnc4ccc(-c5cnn([C@H]6CCNC6)c5)nc43)cc2c1 [Ex 175, (S)-6-((5-(1-(Pyrrolidin-3-yl)-1H-pyrazol-4-yl)-3H-[1,2,3]triazolo[4,5-b]pyridin-3-yl)methyl)quinoline hydrochloride]	–	–
–	COC(=O)c1ccc(-c2ccc3nnn(Cc4cc5cccnc5cc4F)c3n2)cc1F [Ex 135, Methyl 2-fluoro-4-(3-((7-fluoroquinolin-6-yl)methyl)-3H-[1,2,3]triazolo[4,5-b]pyridin-5-yl)benzoate]	< 25%	–
–	CC(C)(c1ccc2ncccc2c1)n1nnc2ccc(-c3cnn(CCO)c3)nc21 [Ex 190, 2-(4-(3-(2-(Quinolin-6-yl)propan-2-yl)-3H-[1,2,3]triazolo[4,5-b]pyridin-5-yl)-1H-pyrazol-1-yl)ethanol]	< 25%	inhibition at 1 µM [2]: < 25%
–	CC(C)(c1ccc2ncccc2c1)n1nnc2ccc(-c3ccc(C(N)=O)c(F)c3)nc21 [Ex 84, 2-Fluoro-4-(3-(2-(quinolin-6-yl)propan-2-yl)-3H-[1,2,3]triazolo[4,5-b]pyridin-5-yl)benzamide]	< 25%	inhibition at 1 µM [2]: < 25%
–	CN(C)CCCNC(=O)c1ccc(-c2ccc3nnn(Cc4ccc5ncccc5c4)c3n2)cc1Cl [Ex 126, 2-Chloro-N-(3-(dimethylamino)propyl)-4-(3-(quinolin-6-ylmethyl)-3H-[1,2,3]triazolo[4,5-b]pyridin-5-yl)benzamide dihydrochloride]	75 to 100%	–
–	O=C(NC1CC1)c1ccc(-c2ccc3nnn(Cc4ccc5c(ccc[n+]5[O-])c4)c3n2)cc1F [Ex 88, 6-((5-(4-(Cyclopropylcarbamoyl)-3-fluorophenyl)-3H-[1,2,3]triazolo[4,5-b]pyridin-3-yl)methyl)quinoline 1-oxide]	< 25%	inhibition at 1 µM [2]: < 25%
–	C/C(=N/NC(=O)c1ccncc1)c1ccc2nnn(Cc3ccc4ncccc4c3)c2n1 (single isomer, unassigned) [Ex 220, N′-(1-(3-(quinolin-6-ylmethyl)-3H-[1,2,3]triazolo[4,5-b]pyridin-5-yl)ethylidene)iso-nicotinohydrazide]	< 25%	–
50 to 150 nM	Cc1cc(-c2ccc3nnn(Cc4ccc5ncccc5c4)c3n2)ccc1C(N)=O [Ex 142, 2-Methyl-4-(3-(quinolin-6-ylmethyl)-3H-[1,2,3]triazolo[4,5-b]pyridin-5-yl)benzamide]	75 to 100%	–
50 to 150 nM	CNC(=O)c1cccc(-c2ccc3nnn(Cc4ccc5ncccc5c4)c3n2)c1 [Ex55]	–	–
< 1000 nM	c1cncc(-c2ccc3nnn(Cc4ccc5ncccc5c4)c3n2)c1 [Ex 173, 6-((5-(Pyridin-3-yl)-3H-[1,2,3]triazolo[4,5-b]pyridin-3-yl)methyl)quinoline]	–	–
50 to 150 nM	O=C(NC1CCCCC1)c1ccc(-c2ccc3nnn(Cc4ccc5ncccc5c4)c3n2)cc1F [Ex45]	–	–

GI50 [1]	SMILES	inhibition at 0.1 µM [1]	also measured
–	OCc1ccc(-c2ccc3nnn(Cc4ccc5ncccc5c4)c3n2)cc1F [Ex41, hydrochloride]	–	GI50 (MKN-45 proliferation, hydrochloride): 50 to 150 nM
–	CON=C(C)c1ccc2nnn(Cc3ccc4ncccc4c3)c2n1 [Ex 217, 1-(3-(Quinolin-6-ylmethyl)-3H-[1,2,3]triazolo[4,5-b]pyridin-5-yl)ethanone O-methyl oxime]	50 to 75%	–
–	CCc1nn(C(=O)OC(C)(C)C)c2cc(-c3ccc4nnn(Cc5ccc6ncccc6c5)c4n3)ccc12 [Ex 181, tert-Butyl 3-ethyl-6-(3-(quinolin-6-ylmethyl)-3H-[1,2,3]triazolo[4,5-b]pyridin-5-yl)-1H-indazole-1-carboxylate]	< 25%	inhibition at 1 µM [2]: 75 to 100%
150 to 500 nM	Cc1n[nH]c2cc(-c3ccc4nnn(Cc5ccc6ncccc6c5)c4n3)ccc12 [Ex 168, 6-((5-(3-Methyl-1H-indazol-6-yl)-3H-[1,2,3]triazolo[4,5-b]pyridin-3-yl)methyl)quinoline]	–	–
150 to 500 nM	C[C@H](c1ccc2ncccc2c1)n1nnc2ccc(-c3ccc(C(N)=O)c(Cl)c3)nc21 [Ex222]	–	–
–	Cl.NC(=O)c1ccc(-c2ccc3nnn(Cc4ccc5ncccc5c4)c3n2)cc1Cl [Ex 123, 2-Chloro-4-(3-(quinolin-6-ylmethyl)-3H-[1,2,3]triazolo[4,5-b]pyridin-5-yl)benzamide hydrochloride]	–	Inhibition (% Inhibition of MKN-45 proliferation) (MKN-45 proliferation): B (B = ≥50-<75%)
–	CC(=NO)c1ccc2nnn(Cc3ccc4ncccc4c3)c2n1 [Ex 216, 1-(3-(Quinolin-6-ylmethyl)-3H-[1,2,3]triazolo[4,5-b]pyridin-5-yl)ethanone oxime]	< 25%	–
< 1000 nM	c1cnc2ccc(Cn3nnc4ccc(-c5cnn(CCN6CCOCC6)c5)nc43)cc2c1 [Ex 176, 4-(2-(4-(3-(Quinolin-6-ylmethyl)-3H-[1,2,3]triazolo[4,5-b]pyridin-5-yl)-1H-pyrazol-1-yl)ethyl)morpholine hydrochloride]	–	–
50 to 150 nM	O=C(NCCN1CCOCC1)c1ccc(-c2ccc3nnn(Cc4ccc5ncccc5c4)c3n2)cc1 [Ex 36, N-(2-morpholinoethyl)-4-(3-(quinolin-6-ylmethyl)-3H-[1,2,3]triazolo[4,5-b]pyridin-5-yl)benzamide]	–	–
–	CNC(=O)c1cccc(-c2ccc3nnn(Cc4ccc5ncccc5c4)c3n2)c1 [Ex 55, N-Methyl-3-(3-(quinolin-6-ylmethyl)-3H-[1,2,3]triazolo[4,5-b]pyridin-5-yl)benzamide]	< 25%	–
–	CC(=O)NN=C(C)c1ccc2nnn(Cc3ccc4ncccc4c3)c2n1 [Ex 218, N′-(1-(3-(Quinolin-6-ylmethyl)-3H-[1,2,3]triazolo[4,5-b]pyridin-5-yl)ethylidene) acetohydrazide]	< 25%	–
150 to 500 nM	CN(C)CCNC(=O)c1ccc(-c2ccc3nnn(Cc4ccc5ncccc5c4)c3n2)cc1F [Ex 31, N-(2-(dimethylamino)ethyl)-2-fluoro-4-(3-(quinolin-6-ylmethyl)-3H-[1,2,3]triazolo[4,5-b]pyridin-5-yl)benzamide]	–	–
–	NC(=O)c1cc(-c2ccc3nnn(Cc4ccc5ncccc5c4)c3n2)ccc1Cl [Ex 212, 2-Chloro-5-(3-(quinolin-6-ylmethyl)-3H-[1,2,3]triazolo[4,5-b]pyridin-5-yl)benzamide]	75 to 100%	inhibition at 1 µM [2]: 25 to 50%
150 to 500 nM	O=C(NC1CCOCC1)c1ccc(-c2ccc3nnn(Cc4ccc5ncccc5c4)c3n2)cc1 [Ex 28, 4-(3-(quinolin-6-ylmethyl)-3H-[1,2,3]triazolo[4,5-b]pyridin-5-yl)-N-(tetrahydro-2H-pyran-4-yl)benzamide]	–	–
150 to 500 nM	O=C(NC1CCNCC1)c1ccc(-c2ccc3nnn(Cc4ccc5ncccc5c4)c3n2)cc1 [Ex 30, N-(Piperidin-4-yl)-4-(3-(quinolin-6-ylmethyl)-3H-[1,2,3]triazolo[4,5-b]pyridin-5-yl)benzamide hydrochloride]	–	–
≤ 50 nM	NC(=O)c1ccc(-c2ccc3nnn(Cc4ccc5ncsc5c4)c3n2)cc1Cl [Ex 210, 4-(3-(Benzo[d]thiazol-6-ylmethyl)-3H-[1,2,3]triazolo[4,5-b]pyridin-5-yl)-2-chlorobenzamide]	75 to 100%	–
–	Cl.NC(=O)c1ccc(-c2ccc3nnn(Cc4cc5cccnc5cc4F)c3n2)cc1F [Ex 141, 2-Fluoro-4-(3-((7-fluoroquinolin-6-yl)methyl)-3H-[1,2,3]triazolo[4,5-b]pyridin-5-yl)benzamide hydrochloride]	–	Inhibition (% Inhibition of MKN-45 proliferation) (MKN-45 proliferation): A (A = ≥75 to 100%); % inhibition @ 1 uM (MKN-45 proliferation, 1 μM): A (A = ≥75 to 100%)
50 to 150 nM	Cn1cc(-c2ccc3nnn(Cc4ccc5ncccc5c4)c3n2)cn1 [Ex 144, 6-((5-(1-Methyl-1H-pyrazol-4-yl)-3H-[1,2,3]triazolo[4,5-b]pyridin-3-yl)methyl)quinoline]	–	–
